# Measured values as given in patent US9399045B2, “Inhibition of choroidal neovascularization” (Washington University, priority 2011, dated 2016).
# Columns and labels:
# ABCA1 gene expression = ABCA1 gene expression in peritoneal macrophages treated with LXR agonist (real time qPCR); format: cell-based, mouse; settings: peritoneal young or old macrophages, 24 hours, 0 to 10 μM, FIG. 4a-b
# Procedure: (§1) Peritoneal macrophages recruitment was elicited by intraperitoneal injection of 4% thioglycollate. Five days after injection, macrophages were harvested and cultured in RPMI-1640 overnight (Gibco, Grand Island, N.Y.). Macrophages were then washed with RPMI-1640 and non-adherent cells removed. Total RNA was prepared from splenic macrophage, peritoneal macrophages, retina, choroid or PBMCs using the RNeasy mini kit (Qiagen inc., Valencia, Calif.). cDNA was prepared using the High Capacity cDNA Archive Kit (Applied Biosystems) and PCR amplifications of cDNA were performed using Taqman probe-based gene expression assay (Applied Biosystems) as previously described (Kelly, J., et al., Senescence regulates macrophage activation and angiogenic fate at sites of tissue injury in mice. J Clin Invest 117, 3421-3426, 2007). Primer and probe sets were as follows: ActB. Mm00607939_s1; ABCA1, Mm00442649_ml; ABCG1, Mm01348250_ml; IL-6, Mm00446190_ml; FasL, Mm00438864_ml; IL-10, Mm99999062_ml; 18s rRNA. Hs99999901_s1; ABCA1, Hs00442663_ml; ABCG1: Hs 01555199_gl; IL10, Hs00961622_ml. Young and old peritoneal macrophages were treated with Liver X Receptor (LXR) agonist, TO-901317 (Sigma-Aldrich, St. Louis, Mo.) for 24 hours. […] Treated macrophages were analyzed for ABCA1 and ABCG1 gene expression and their ability to inhibit HMVECs proliferation was tested.
# ABCG1 gene expression = ABCG1 gene expression in peritoneal macrophages treated with LXR agonist (real time qPCR); format: cell-based, mouse; settings: peritoneal young or old macrophages, 24 hours, 0 to 10 μM, FIG. 4a-b
# Procedure: as §1
# HMVECs = experiment: Vascular endothelial cell proliferation assay: HMVECs co-cultured with treated peritoneal macrophages, [3H] thymidine; format: cell-based, human
# Procedure: Cell proliferation was measured with an adaptation of a previously described method (Khan, A. A. & Apte, R. S. An assay for macrophage-mediated regulation of endothelial cell proliferation. Immunobiology 213, 695-699, 2008). HMVECs (1×10^4 cells) in log phase were cultured in 96-well round-bottomed plates for adherence. HMVECS cells were then co-cultured with peritoneal macrophages (1:25 ratio) and incubated with 5 μCi/ml [^3H] thymidine (PerkinElmer) for 24 hours. Cells were harvested onto glass fiber filters (Packard) and incorporated [3H] thymidine was read using TopCount NXT (PerkinElmer).
# Young and old peritoneal macrophages were treated with Liver X Receptor (LXR) agonist, TO-901317 (Sigma-Aldrich, St. Louis, Mo.) for 24 hours. LXR agonist was dissolved in DMSO (vehicle) and treatment dosage ranged from 0 to 10 μM. Treated macrophages were analyzed for ABCA1 and ABCG1 gene expression and their ability to inhibit HMVECs proliferation was tested.
# Peritoneal macrophages were transfected with 50 nM miScript miR33 inhibitor (anti-miR33) or negative control inhibitor (con anti-miR) using HiPerFect Transfection reagent (Qiagen). The transfection efficiency of macrophages was assessed using BLOCK-iT Fluorescent Oligo (Invitrogen). After miR33 inhibition, target genes and proteins were analyzed by qPCR and Western blot.
# ABCA1 expression = ABCA1 expression in tissues of old mice after 5 days of intraperitoneal TO-901317; format: in vivo, mouse; settings: 25 or 50 mg/kg/day for 5 days, FIG. 4e-g and FIG. 10
# Procedure: (§2) Total RNA was prepared from splenic macrophage, peritoneal macrophages, retina, choroid or PBMCs using the RNeasy mini kit (Qiagen inc., Valencia, Calif.). cDNA was prepared using the High Capacity cDNA Archive Kit (Applied Biosystems) and PCR amplifications of cDNA were performed using Taqman probe-based gene expression assay (Applied Biosystems) as previously described (Kelly, J., et al., Senescence regulates macrophage activation and angiogenic fate at sites of tissue injury in mice. J Clin Invest 117, 3421-3426, 2007). Primer and probe sets were as follows: ActB. Mm00607939_s1; ABCA1, Mm00442649_ml; ABCG1, Mm01348250_ml; IL-6, Mm00446190_ml; FasL, Mm00438864_ml; IL-10, Mm99999062_ml; 18s rRNA. […]
# (§3) Whole cell lysate was extracted from mouse peritoneal macrophages or human PBMCs using lysis buffer (50 mM Tris (pH=7.4), 150 mM NaCl, 1% EDTA, 10% TritonX, and 1% SDS) with proteinase inhibitor (Complete, Roche). […] Proteins were detected and analyzed using the Odyssey Infrared Imaging System (LI-COR Biosciences, Lincoln, Nebr.). Band densities of ABCA1 and ABCG1 were quantified and normalized to β-actin.
# (§4) Old mice (>18 months) were given a daily intraperitoneal injection of vehicle, 25 mg/kg or 50 mg/kg TO-901317. After five consecutive days treatment, CNV was induced in one set of mice (5 of each group) and analyzed as described above. […]
# ABCG1 expression = ABCG1 expression in tissues of old mice after 5 days of intraperitoneal TO-901317; format: in vivo, mouse; settings: 25 or 50 mg/kg/day for 5 days, FIG. 4e-g and FIG. 10
# Procedure: as §2, §3, §4
# [1] = system: choroidal neovascularization (CNV); experiment: Laser-induced CNV in old mice; format: in vivo, mouse; settings: intraperitoneal, 25 or 50 mg/kg/day for 5 days prior to laser, FIG. 4h-i
# Procedure: Rupture of Bruchs membrane with laser was used to initiate CNV in mice as described previously (Apte R S, Niederkorn J Y. Isolation and characterization of a unique natural killer cell inhibitory factor present in the anterior chamber of the eye. J. Immunol. 156:2667-2673, 1996). Briefly, mice were anesthetized by injecting ketamine hydrochloride (100 mg/kg) and xylazine (13.4 mg/kg) intraperitoneally, and their pupils were dilated with 1% tropicamide. Using argon green laser, four laser burns were placed around the optic nerve (0.1 second, 50 μm, and 110 mW). Seven days after laser, mice were anesthetized as described above and perfused intraventricularly with FITC-dextran (Sigma-Aldrich). Mice were euthanized in a CO2 chamber, and their eyes were harvested for tissue processing. […]
# Micro scissors were used to make four radial incisions in the sclerochoroidal “eyecup” to prepare choroidal flat mounts on glass slides. […] The choroidal flat mounts were analyzed for the presence of CNV by confocal microscopy. The extent of choroidal neovascularization was quantified by Metamorph Imaging software. […]
# as §4
smiles,measurement,setting,value
"O=S(=O)(c1ccccc1)N(CC(F)(F)F)c1ccc(C(O)(C(F)(F)F)C(F)(F)F)cc1 [TO-901317, N-(2,2,2-trifluoro-ethyl)-N-[4-(2,2,2-tri-fluoro-1-hydroxy-1-trifluoromethyl-ethyl)-phenyl]-benzenesulfonamide]",ABCA1 gene expression,ABCA1 gene expression,dose-dependent upregulation
same,ABCG1 gene expression,ABCG1 gene expression,dose-dependent upregulation
same,ability of treated macrophages to inhibit HMVECs proliferation,HMVECs; Abca1−/− macrophages treated with LXR agonist,does not restore their ability to inhibit HMVECs proliferation
same,ability of treated macrophages to inhibit endothelial cell proliferation,"HMVECs; old macrophages treated with LXR agonist, co-cultured with HMVECs, FIG. 4d",completely restored their ability to inhibit endothelial cell proliferation
same,ABCA1 expression compared to vehicle treated mice,ABCA1 expression,strong systemic upregulation
same,ABCG1 expression compared to vehicle treated mice,ABCG1 expression,strong systemic upregulation
same,CNV compared to vehicle treated old mice,[1],significant and dose dependent reduction in CNV
